Assay [1] concerns the target T1, human orexin-1 receptor (hOX1R) (Homo sapiens, UniProt O43613).
T1 construct: expressed in transfected cells; host or cells: Chinese hamster ovary (CHO) cells
T1 sequence (O43613 1-425): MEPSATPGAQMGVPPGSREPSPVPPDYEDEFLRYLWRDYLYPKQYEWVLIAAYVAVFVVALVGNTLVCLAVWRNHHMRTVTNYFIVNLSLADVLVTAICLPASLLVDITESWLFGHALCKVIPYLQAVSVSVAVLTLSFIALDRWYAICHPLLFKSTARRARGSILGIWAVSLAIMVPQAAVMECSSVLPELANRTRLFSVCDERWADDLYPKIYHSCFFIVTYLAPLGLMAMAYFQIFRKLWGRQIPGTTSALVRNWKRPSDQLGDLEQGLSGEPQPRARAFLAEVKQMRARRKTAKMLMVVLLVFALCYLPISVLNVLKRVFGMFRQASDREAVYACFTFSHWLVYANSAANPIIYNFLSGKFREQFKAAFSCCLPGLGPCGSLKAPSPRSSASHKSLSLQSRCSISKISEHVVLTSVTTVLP
Kind of assay: Measurement of orexin antagonistic activity (intracellular Ca2+ fluorescence, FDSS) on hOX1R. Particulars: CHO cells forcibly expressing hOX1R; Fluo-4AM; ligand peptide (substituted human orexin-A) 300 pM; compound preincubated 30 minutes; read-out: IC50 Value OX1. The class given is cell-based. As to the method: (§1) The antagonistic activities of the test compounds on human orexin-1 receptor (hOX1R) and orexin-2 receptor (hOX2R) were measured by modifying from the method described in literature (Toshikatsu Okumura et al., Biochemical and Biophysical Research Communications, 280, 976-981, 2001). Chinese hamster ovary (CHO) cells forcibly expressing the hOX1R and hOX2R were seeded into a 96 well Black clear bottom plate (Nunc) at 20,000 cells per well, which were cultured in Ham's F-12 medium containing 0.1 mM MEM non-essential amino acids, 0.5 mg/mL G418, 10% fetal bovine serum (all by Invitrogen) for 16 hours under the conditions of 37° C., 5% CO2. After removing the medium, 100 μL of 0.5 μM Fluo-4AM ester (Dojin) in an assay buffer (25 mM HEPES (Dojin), Hank's balanced salt solution (Invitrogen), 0.1% bovine serum albumin, 2.5 mM probenecid, 200 μg/mL Amaranth (all by Sigma-Aldrich), pH 7.4) was added and the cells were incubated for 60 minutes at 37° C., 5% CO2. After removing the assay buffer containing fluo-4AM ester, the test compound was dissolved in dimethyl sulfoxide to be 10 mM and diluted with the assay buffer, 150 μL, of which was added and incubated for 30 minutes.
(§2) The reaction was measured for the fluorescence intensity of each well every second for 3 minutes using Functional Drug Screening System (FDSS; Hamamatsu Photonics K.K.), and the antagonistic activity was determined using the maximum fluorescence intensity as the indicator of intracellular Ca2+ concentration.

Assay [2] addresses T2, orexin-2 receptor (hOX2R) (Homo sapiens, UniProt O43614).
T2 construct: expressed in transfected cells; host or cells: Chinese hamster ovary (CHO) cells
T2 sequence (O43614 1-444): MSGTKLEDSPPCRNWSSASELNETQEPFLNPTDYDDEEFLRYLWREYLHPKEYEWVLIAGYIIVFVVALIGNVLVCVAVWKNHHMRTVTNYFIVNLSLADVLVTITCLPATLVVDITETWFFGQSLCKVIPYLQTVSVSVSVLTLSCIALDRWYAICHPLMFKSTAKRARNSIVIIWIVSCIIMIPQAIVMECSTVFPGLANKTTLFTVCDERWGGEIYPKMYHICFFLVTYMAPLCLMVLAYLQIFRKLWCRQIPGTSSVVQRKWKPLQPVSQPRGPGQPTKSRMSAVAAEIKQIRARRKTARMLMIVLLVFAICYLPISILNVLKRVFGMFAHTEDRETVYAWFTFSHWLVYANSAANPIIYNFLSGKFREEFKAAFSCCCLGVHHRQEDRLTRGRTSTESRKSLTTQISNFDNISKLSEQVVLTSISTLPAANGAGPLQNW
Kind of assay: Measurement of orexin antagonistic activity (intracellular Ca2+ fluorescence, FDSS) on hOX2R. The class given is cell-based. The following applies: CHO cells forcibly expressing hOX2R; Fluo-4AM; ligand peptide (substituted human orexin-A) 3 nM; compound preincubated 30 minutes; read-out: IC50 Value OX2. As to the method: as §1, §2

SMILES strings stand for the structures.

In patent publication US20150166523A1, “BRANCHED CHAIN ALKYL HETEROAROMATIC RING DERIVATIVE” (TAISHO PHARMACEUTICAL CO., LTD., priority 2012, published 2015) one finds IC50 data, which are given here for 20 molecules.

In general, IC50 refers to the concentration at which inhibition is half-maximal. Consider `CCN(C(=O)c1ccccc1-n1nccn1)[C@@H](C)Cc1noc(-c2ccc(F)cc2)n1` [Example 51, N-Ethyl-N-{(2S)-1-[5-(4-fluorophenyl)-1,2,4-oxadiazol-3-yl]propan-2-yl}-2-(2H-1,2,3-triazol-2-yl)benzamide], for which the IC50 in assay [1] is 0.2 nM; in assay [2], 9.3 nM.

Regarding `Cc1ccc(-n2nccn2)c(C(=O)N(CCC#N)[C@@H](C)Cn2cc(-c3ccc(F)cc3)nn2)c1` [Example 91, N-(2-Cyanoethyl)-N-{(2S)-1-[4-(4-fluorophenyl)-1H-1,2,3-triazol-1-yl]propan-2-yl}-5-methyl-2-(2H-1,2,3-triazol-2-yl) benzamide], the IC50 in assay [1] amounted to 203 nM; in assay [2], 279 nM.

Consider `CCN(C(=O)c1cc(F)ccc1-c1ncccn1)[C@@H](C)Cn1cc(-c2ccc(F)cn2)cn1` [Example 34, N-Ethyl-5-fluoro-N-{(2S)-1-[4-(5-fluoropyridin-2-yl)-1H-pyrazol-1-yl]propan-2-yl}-2-(pyrimidin-2-yl)benzamide], for which the IC50 in assay [1] was 9.8 nM; in assay [2], 334 nM.

As to `CCN(C(=O)c1cc(C)ccc1-c1ncccn1)[C@@H](C)Cn1nnc(-c2ccc(F)cc2)n1` [Example 68, N-Ethyl-N-{(2S)-1-[5-(4-fluorophenyl)-2H-tetrazol-2-yl]propan-2-yl}-5-methyl-2-(pyrimidin-2-yl)benzamide], the values for the IC50 in assay [1] and in assay [2] were 0.8 nM and 33.7 nM, respectively.

As to `CCN(C(=O)c1cc(C)ccc1-n1nccn1)[C@@H](C)Cn1cc(-c2ccccc2)nn1` [Example 95, N-Ethyl-5-methyl-N-[(2S)-1-(4-phenyl-1H-1,2,3-triazol-1-yl)propan-2-yl]-2-(2H-1,2,3-triazol-2-yl)benzamide], the IC50 in assay [1] turned out to be 0.6 nM; in assay [2], 17.7 nM.

With `CCN(C(=O)c1cc(C)ccc1-n1nccn1)[C@@H](C)Cn1cc(-c2ccc(F)cc2)nn1` [Example 71, N-Ethyl-N-{(2S)-1-[4-(4-fluorophenyl)-1H-1,2,3-triazol-1-yl]propan-2-yl}-5-methyl-2-(2H-1,2,3-triazol-2-yl)benzamide], the IC50 turned out to be 1.3 nM in assay [1] and 21.8 nM in assay [2].

In the case of `Cc1ccc(-n2nccn2)c(C(=O)N(CC(C)O)[C@@H](C)Cn2cc(-c3ccc(F)cc3)cn2)c1` (stereo partly drawn) [Example 102, N-{(2S)-1-[4-(4-Fluorophenyl)-1H-pyrazol-1-yl]propan-2-yl}-N-(2-hydroxypropyl)-5-methyl-2-(2H-1,2,3-triazol-2-yl)benzamide], the results for the IC50 in assay [1] and in assay [2] were 1.4 nM and 27.9 nM, respectively.

On to `CCN(C(=O)c1cc(C)ccc1-n1nccn1)[C@@H](C)Cn1ccc(-c2ccc(F)cn2)n1` [Example 1, N-Ethyl-N-{(2S)-1-[3-(5-fluoropyridin-2-yl)-1H-pyrazol-1-yl]propan-2-yl}-5-methyl-2-(2H-1,2,3-triazol-2-yl)benzamide], for which the IC50 in assay [1] was 1 nM; in assay [2], 1.1 nM.

For `CCN(C(=O)c1nc(C)ccc1-n1nccn1)[C@@H](C)Cn1cc(-c2ccc(F)cc2)cn1` [Example 26, N-Ethyl-N-{(2S)-1-[4-(4-fluorophenyl)-1H-pyrazol-1-yl]propan-2-yl}-6-methyl-3-(2H-1,2,3-triazol-2-yl)pyridine-2-carboxamide], the IC50 in assay [1] came to 1.7 nM; in assay [2], 55.9 nM.

Take `CCN(C(=O)c1nc(C)ccc1-n1nccn1)[C@@H](C)Cn1nnc(-c2ccc(F)cn2)n1` [Example 86, N-Ethyl-N-{(2S)-1-[5-(5-fluoropyridin-2-yl)-2H-tetrazol-2-yl]propan-2-yl}-6-methyl-3-(2H-1,2,3-triazol-2-yl)pyridine-2-carboxamide]: the IC50 came to 37.7 nM in assay [1] and 1030 nM in assay [2].

Turning to `CCN(C(=O)c1cc(F)ccc1-n1nccn1)[C@@H](C)Cn1cc(-c2ccc(F)cc2)nn1` [Example 84, N-Ethyl-5-fluoro-N-{(2S)-1-[4-(4-fluorophenyl)-1H-1,2,3-triazol-1-yl]propan-2-yl}-2-(2H-1,2,3-triazol-2-yl)benzamide], the figures for the IC50 in assay [1] and in assay [2] were 3.1 nM and 51.4 nM, respectively.

As to `CCN(C(=O)c1nc(C)ccc1-n1nccn1)[C@@H](C)Cc1noc(-c2ccc(F)cc2)n1` [Example 49, N-Ethyl-N-{(2S)-1-[5-(4-fluorophenyl)-1,2,4-oxadiazol-3-yl]propan-2-yl}-6-methyl-3-(2H-1,2,3-triazol-2-yl)pyridine-2-carboxamide], the IC50 in assay [1] is 1.1 nM; in assay [2] it was 32.2 nM.

On to `CC[C@@H](Cn1ccc(-c2ccc(F)cn2)n1)N(C)C(=O)c1cc(C)ccc1-n1nccn1` [Example 24, N-{(2S)-1-[3-(5-Fluoropyridin-2-yl)-1H-pyrazol-1-yl]butan-2-yl}-N,5-dimethyl-2-(2H-1,2,3-triazol-2-yl) benzamide], for which the IC50 in assay [1] stood at 9.8 nM; in assay [2], 41.4 nM.

As for `CCN(C(=O)c1cc(C)ccc1-n1nccn1)[C@@H](C)Cn1cc(-c2cccc(F)c2)nn1` [Example 98, N-Ethyl-N-{(2S)-1-[4-(3-fluorophenyl)-1H-1,2,3-triazol-1-yl]propan-2-yl}-5-methyl-2-(2H-1,2,3-triazol-2-yl) benzamide], the IC50 in assay [1] is 6.3 nM; in assay [2] it was 9.8 nM.

On to `Cc1ccc(-n2nccn2)c(C(=O)N(C)[C@@H](C)Cn2ccc(-c3ccc(F)cn3)n2)c1` [Example 19, N-{(2S)-1-[3-(5-Fluoropyridin-2-yl)-1H-pyrazol-1-yl]propan-2-yl}-N,5-dimethyl-2-(2H-1,2,3-triazol-2-yl) benzamide], for which the IC50 is 1.1 nM in assay [1] and 5.8 nM in assay [2].

As for `CCN(C(=O)c1cc(C)ccc1-n1nccn1)[C@@H](C)Cn1cc(-c2ccc(Cl)cc2)nn1` [Example 92, N-{(2S)-1-[4-(4-Chlorophenyl)-1H-1,2,3-triazol-1-yl]propan-2-yl}-N-ethyl-5-methyl-2-(2H-1,2,3-triazol-2-yl)benzamide], the IC50 in assay [1] worked out at 2.5 nM; in assay [2] it was 64.6 nM.

Consider `Cc1ccc(-n2nccn2)c(C(=O)N(CCO)[C@@H](C)Cn2cc(-c3ccc(F)cc3)nn2)c1` [Example 73, N-{(2S)-1-[4-(4-Fluorophenyl)-1H-1,2,3-triazol-1-yl]propan-2-yl}-N-(2-hydroxyethyl)-5-methyl-2-(2H-1,2,3-triazol-2-yl)benzamide], for which the IC50 in assay [1] was 80.3 nM; in assay [2], 5.7 nM.

`CCN(C(=O)c1cc(F)ccc1-c1ncccn1)[C@@H](C)Cn1ccc(-c2ccc(F)cc2)n1` [Example 11, N-Ethyl-5-fluoro-N-[(2S)-1-[3-(4-fluorophenyl)-1H-pyrazol-1-yl]propan-2-yl}-2-(pyrimidin-2-yl) benzamide]: the IC50 in assay [1] was determined as 0.2 nM; in assay [2], 14.4 nM.

For `C[C@@H](Cn1ccc(-c2ccc(F)cn2)n1)N(C)C(=O)c1ccccc1-c1ncccn1` [Example 4, N-[(2S)-1-[3-(5-Fluoropyridin-2-yl)-1H-pyrazol-1-yl]propan-2-yl]-N-methyl-2-(pyrimidin-2-yl)benzamide], the IC50 amounted to 1.7 nM in assay [1] and 67 nM in assay [2].

Regarding `CCN(C(=O)c1cc(F)ccc1-n1nccn1)[C@@H](C)Cn1nnc(-c2ccc(F)cn2)n1` [Example 87, N-Ethyl-5-fluoro-N-{(2S)-1-[5-(5-fluoropyridin-2-yl)-2H-tetrazol-2-yl]propan-2-yl}-2-(2H-1,2,3-triazol-2-yl)benzamide], the results for the IC50 in assay [1] and in assay [2] were 9.8 nM and 283 nM, respectively.
